# According to PMC9653339, “Revisiting the anticancer properties of phosphane(9-ribosylpurine-6-thiolato)gold(I) complexes and their 9H-purine precursors” (Journal of Biological Inorganic Chemistry, 2022):
# Where “and” joins values, the source holds several entries; their conditions need not be identical. Identical values can stand only once. Like-named read-outs stand apart in the source and are kept apart here.
# Experiments:
# [1] = tested on: HCT-116^wt colon carcinoma cells; assay: MTT cell viability assay, HCT-116wt; assay type: cell-based, human; conditions: 72 h
# Experimental: (§1) Cells were seeded in 96-well microtiter plates (Sarstedt) with a cell density of 0.05 × 10^6 cells per ml and 100 µL per well and incubated for 24 h. A dilution series of test compounds was added to the wells, ranging in twelve steps from 100 µM to 5 nM. As a control, equal amounts of DMSO were added. Treated cells were further incubated for 72 h. Then, 12.5 µL per well of MTT solution (0.05% in phosphate-buffered saline (PBS)) was added, followed by another 2 h of incubation. The plates were centrifuged, the medium was discarded and 25 µL per well of SDS solution in DMSO (10% SDS, 0.6% AcOH in DMSO) was added to dissolve the formazan. The plates were incubated for a further hour. Absorbances at 570 nm and 630 nm were measured using a plate reader (Tecan). Background absorbance (630 nm) was subtracted from the formazan signal (570 nm). The resulting absorbance was directly proportional to the amount of viable cells. The control was normalized to 100% viable cells and viability of cells treated with test compounds was calculated accordingly. IC50 values were calculated based on a sigmoidal fit model using GraphPad Prism. Means and SD were calculated from at least four independent experiments.
# [2] = tested on: caspase 3/7 in 518A2 melanoma cells; assay: Caspase 3/7 activation; assay type: cell-based, human; conditions: 518A2 cells, 10 µM, 6 h
# Experimental: The assay was conducted, following manufacturer’s instructions using the Cell Meter Caspase 3/7 activity apoptosis assay kit (AAT Bioquest). Briefly, 518A2 melanoma cells were seeded in 96-well flat black microtiter plates with a density of 0.22 × 10^6 cells per mL and 90 µL per well. After 24 h of incubation, 10 µL per well of tenfold diluted test compounds was added, and the cells were incubated for a further 6 h. Subsequently, 100 µL per well of Caspase 3/7 substrate working solution was added and incubated for 1 h in the dark at room temperature. The fluorescence was measured using a micro-plate reader (Tecan) at ex/em = 490/525 nm.
# [3] = tested on: mdr MCF-7^Topo mamma carcinoma cells; assay: MTT cell viability assay, MCF-7Topo; assay type: cell-based, human; conditions: 72 h
# Experimental: as §1, with “All complexes stable in solution were investigated for their anti-proliferative effect on nine human cancer cell lines, using the MTT-based cell viability assay. Cells” for “Cells”
# [4] = tested on: mdr KB-V1^Vbl cervix carcinoma cells; assay: MTT cell viability assay, KB-V1 (with and without verapamil); assay type: cell-based, human; conditions: 72 h, without verapamil
# Experimental: as §1, with “All complexes stable in solution were investigated for their anti-proliferative effect on nine human cancer cell lines, using the MTT-based cell viability assay. Cells” for “Cells”
# [5] = tested on: HeLa cervix carcinoma cells; assay: MTT cell viability assay, HeLa; assay type: cell-based, human; conditions: 72 h
# Experimental: as §1, with “All complexes stable in solution were investigated for their anti-proliferative effect on nine human cancer cell lines, using the MTT-based cell viability assay. Cells” for “Cells”
# [6] = tested on: thioredoxin reductase (TrxR); assay: Inhibition of TrxR activity in cell lysates; assay type: biochemical, human; conditions: lysates of 518A2 melanoma cells
# Experimental: For the measurement of TrxR activity, the TrxR Colorimetric Assay Kit (Cayman Chemicals) was used according to manufacturer’s instructions. 1 × 10^8 518A2 melanoma cells were harvested using a cell scraper, homogenized in 5 mL of cold lysis buffer (50 mM K3PO4, 1 mM EDTA, pH 7.4) on ice and centrifuged for 15 min (4 °C, 10,000×g). The protein concentration of the supernatant was determined via Nanodrop. Then, 10 µL Protease Inhibitor Cocktail Plus (Carl Roth) was added to 1 mL of the cell lysate, which was either used for the assay right away or stored at − 80 °C. Prior to use, the assay buffer was warmed to room temperature and the cell lysate, NADPH (Nicotinamide adenine dinucleotide phosphate), ATM (aurothiomalate) and rat liver TrxR enzyme were thawed and kept on ice After determination of the amount of cell lysate for optimum TrxR activity, alle components were pipetted into the wells of a clear 96-well plate and the enzymatic reactions were initiated by addition of NADPH and 5,5′-dithiobis-(2-nitrobenzoic acid (DTNB). Then, the absorbance at 405 nm was measured once every minute using a plate reader (Tecan) at least ten time points. The TrxR activity was measured in the presence and absence of ATM. The difference between the two results renders the DTNB reduction due to TrxR activity. By plotting the average absorbance values as a function of time, the slope of the linear portion of the curve was obtained, and the change of absorbance (ΔA405) per minute could be determined. The values were corrected for unspecific DTNB reduction and the TrxR activity was calculated using the following formula: TrxR activity [µmol/min/mL] = [corrected ΔA/min (sample)/7.92 mM^−1] × [0.2 mL/0.02 mL] × sample dilution. The assay was conducted at 22 °C. All experiments were performed in triplicate and the solvent-treated negative controls were set to 100%.
# 518A2 melanoma cells = assay: MTT cell viability assay, 518A2; assay type: cell-based, human
# Experimental: as §1, with “All complexes stable in solution were investigated for their anti-proliferative effect on nine human cancer cell lines, using the MTT-based cell viability assay. Cells” for “Cells”
# [7] = tested on: human adult dermal fibroblasts HDFa; assay: MTT cell viability assay, HDFa; assay type: cell-based; conditions: 72 h, non-malignant fibroblasts
# Experimental: as §1, with “All complexes stable in solution were investigated for their anti-proliferative effect on nine human cancer cell lines, using the MTT-based cell viability assay. Cells” for “Cells”
# [8] = tested on: EA.hy926 endothelial hybrid cells; assay: MTT cell viability assay, EA.hy926; assay type: cell-based, human
# Experimental: as §1, with “All complexes stable in solution were investigated for their anti-proliferative effect on nine human cancer cell lines, using the MTT-based cell viability assay. Cells” for “Cells”
# [9] = tested on: HCT-116^p53−/− (p53 knockout mutant) colon carcinoma cells; assay: MTT cell viability assay, HCT-116 p53-/-; assay type: cell-based, human; conditions: 72 h
# Experimental: as §1
# EA.hy926 cells = assay: Tube formation assay; assay type: cell-based, human; conditions: 5 µM (CA-4 0.01 µM)
# Experimental: EA.hy926 cells were cultured overnight in endothelial medium (37 °C, 95% humidity, 5% CO2) instead of DMEM. In addition, Matrigel was thawed on ice in the refrigerator. Pipette tips and 96-well plates were stored at − 20 °C overnight. The next day, 30 µL of Matrigel was added to each well bubble-free and the well plate was incubated for approximately 45 min (37 °C, 95% humidity, 5% CO2). Subsequently, 100 µL of cell suspension was added to each well at a concentration of 0.4–0.5 × 10^6 cells/mL onto the Matrigel-treated wells and the substances were added in tenfold pre-dilution. This was followed by incubation for approximately 6 h, until tubes formed in the negative control with DMSO. At this point, documentation under the microscope took place.
# [10] = Homo sapiens, Colon carcinoma cell
Compound,IC50 [1],Caspase 3/7 activity [2],IC50 ([3]; read-out: IC50 MCF7^Topo),IC50 [4],IC50 [5],Inhibition of TrxR activity [6],IC50 (518A2 melanoma cells; 72 h),IC50 [7],IC50 ([8]; 72 h),IC50 [9],"IC50 ([3]; Homo sapiens, MCF7/Topo)",Inhibition of tube formation (EA.hy926 cells),"IC50 ([4]; Homo sapiens, KB-V1/Vbl)","IC50 ([5]; Homo sapiens, HeLa)","IC50 (518A2 melanoma cells; Homo sapiens, 518A2, 72 h)","IC50 ([7]; Homo sapiens, HDFa)","IC50 ([8]; Homo sapiens, EA.hy 926, 72 h)","IC50 [1, 10]","IC50 [9, 10]"
"Nc1nc([S][Au][PH](c2ccccc2)(c2ccccc2)c2ccccc2)c2ncn([C@@H]3O[C@H](CO)[C@@H](O)[C@H]3O)c2n1 [Complex 6, (2-Amino-1,7-dihydro-6H-purine-9-β-D-ribofuranosyl-6-thiolato) (triphenylphosphane) gold(I)]",5500 ± 200 nM,even exceeded the effects of the three controls,3200 ± 290 nM,910 ± 90 nM,2400 ± 140 nM,"inhibited TrxR even more strongly than 6-MP, 6-TG and auranofin",~3500 nM and 3500 nM,36000 ± 3000 nM,3800 ± 130 nM,1400 ± 300 nM,,,,,,,,,
"Nc1nc2nc[nH]c2c(=S)[nH]1 [6-TG, 6-thioguanine, reference compound]",,increased caspase activity levels,,,,inhibited TrxR,,,,,900 ± 90 nM,stronger such effect when compared to 6-MP,500 ± 50 nM,190 ± 10 nM,5200 ± 450 nM,> 50000 nM,250 ± 20 nM,,
"CC(=O)OC[C@H]1O[C@@H]([S-])[C@H](OC(C)=O)[C@@H](OC(C)=O)[C@@H]1OC(C)=O.CCP(CC)CC.[Au+] [Auranofin, auranofin]",,increased caspase activity levels,4700 ± 430 nM,1900 ± 70 nM,,inhibited TrxR,,,820 ± 40 nM,,,inhibitory effects,,,,,,,
"OC[C@H]1O[C@@H](n2cnc3c([S][Au][PH](c4ccccc4)(c4ccccc4)c4ccccc4)ncnc32)[C@H](O)[C@@H]1O [Complex 5, (1,7-Dihydro-6H-purine-9-β-D-ribofuranosyl-6-thiolato) (triphenylphosphane) gold(I)]",1700 ± 200 nM,increased caspase activity levels,1700 ± 140 nM,,190 ± 10 nM,"inhibited TrxR even more strongly than 6-MP, 6-TG and auranofin",2600 ± 250 nM,36000 ± 1700 nM,340 ± 30 nM,300 ± 70 nM,,"inhibitory effect, comparable in strength to that of 6-TG",,,,,,,
"Sc1ncnc2nc[nH]c12 [6-MP, 6-Mercaptopurine, reference compound]",,increased caspase activity levels,,,,inhibited TrxR,,,,,6400 ± 460 nM,,1600 ± 100 nM,1400 ± 100 nM,11000 ± 1100 nM,> 50000 nM,920 ± 40 nM,5300 ± 280 nM,580 ± 50 nM
